Reference: US10246429B2, “Vinyl fluoride cyclopropyl fused thiazin-2-amine compounds as beta-secretase inhibitors and methods of use” (AMGEN INC., priority 2015, dated 2019)
pIC50: −log10 of the molar value.

What was measured:
[1] = target: Cathepsin D (CatD) (Homo sapiens (Human), UniProt P07339); test: CatD assay; format: biochemical; conditions: read-out: IC50 IP (μM) CatD
[2] = target: T1, BACE1 (Homo sapiens (Human), UniProt P56817); test: In vitro enzymatic BACE1 FRET assay; format: biochemical; conditions: read-out: IC50 IP (μM) BACE1 Enzyme
Target sequence in this assay (P56817 46-501): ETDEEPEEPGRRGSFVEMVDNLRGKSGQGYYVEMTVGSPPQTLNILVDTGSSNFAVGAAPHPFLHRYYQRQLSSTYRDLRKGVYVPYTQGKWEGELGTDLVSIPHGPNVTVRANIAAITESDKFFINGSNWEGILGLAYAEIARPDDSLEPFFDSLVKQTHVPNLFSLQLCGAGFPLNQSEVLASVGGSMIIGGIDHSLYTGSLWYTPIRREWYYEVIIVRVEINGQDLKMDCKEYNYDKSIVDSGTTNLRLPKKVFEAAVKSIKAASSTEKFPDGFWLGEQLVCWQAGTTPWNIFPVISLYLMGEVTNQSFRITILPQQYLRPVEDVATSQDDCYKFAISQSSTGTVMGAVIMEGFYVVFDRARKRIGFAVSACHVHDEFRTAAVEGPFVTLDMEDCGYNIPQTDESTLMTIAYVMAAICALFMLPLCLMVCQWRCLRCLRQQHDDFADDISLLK
Source text: (§1) In Vitro Enzymatic BACE1 and BACE2 FRET (Fluorescence Resonance Energy Transfer) Assays (Enzyme Assay Data in Table 1)

[3] = target: BACE2 (Homo sapiens (Human), UniProt Q9Y5Z0); test: In vitro enzymatic BACE2 FRET assay; format: biochemical; conditions: read-out: IC50 IP (μM) BACE2 Enzyme
Source text: as §1

[4] = target: T1, BACE1; test: BACE1 cell assay; format: cell-based; conditions: for IC50: read-out: IC50 IP (μM) BACE1 Cell
Target sequence in this assay (P56817 46-501, species assumed): as the sequence (P56817 46-501) above

Chain of BACE2 (Q9Y5Z0 63-518): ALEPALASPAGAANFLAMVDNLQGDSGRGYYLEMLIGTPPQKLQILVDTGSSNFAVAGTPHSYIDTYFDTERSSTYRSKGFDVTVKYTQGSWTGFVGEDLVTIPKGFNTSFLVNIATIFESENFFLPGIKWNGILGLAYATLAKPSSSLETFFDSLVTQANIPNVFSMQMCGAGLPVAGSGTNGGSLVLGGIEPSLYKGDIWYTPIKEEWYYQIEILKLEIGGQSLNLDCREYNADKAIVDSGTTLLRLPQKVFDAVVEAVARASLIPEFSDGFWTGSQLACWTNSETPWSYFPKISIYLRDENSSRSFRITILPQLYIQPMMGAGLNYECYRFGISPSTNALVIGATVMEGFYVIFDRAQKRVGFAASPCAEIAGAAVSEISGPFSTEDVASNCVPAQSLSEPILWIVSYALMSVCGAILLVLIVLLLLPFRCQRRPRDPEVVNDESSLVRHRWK
Chain of Cathepsin D (CatD) (P07339 65-412, species assumed): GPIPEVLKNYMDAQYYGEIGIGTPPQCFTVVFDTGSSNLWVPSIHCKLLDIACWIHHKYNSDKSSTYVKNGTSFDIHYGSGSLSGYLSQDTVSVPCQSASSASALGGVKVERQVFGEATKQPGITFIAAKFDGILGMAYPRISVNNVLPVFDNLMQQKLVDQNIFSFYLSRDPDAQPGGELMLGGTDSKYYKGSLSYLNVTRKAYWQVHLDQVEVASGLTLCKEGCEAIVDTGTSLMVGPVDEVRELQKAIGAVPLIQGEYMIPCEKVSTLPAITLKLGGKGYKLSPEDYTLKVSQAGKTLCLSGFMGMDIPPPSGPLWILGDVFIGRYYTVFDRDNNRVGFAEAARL

| SMILES | IC50 [1] | IC50 [2] | IC50 [3] | pIC50 [4] | IC50 [4] |
| --- | --- | --- | --- | --- | --- |
| C[C@]1(c2cc(/C=C(\F)c3ccc(C#N)cn3)ccc2F)N=C(N)S[C@@]2(C(N)=O)C[C@H]21 [Example 243, (1S,5S,6S)-3-amino-5-(5-((Z)-2-(5-cyanopyridin-2-yl)-2-fluorovinyl)-2-fluorophenyl)-5-methyl-2-thia-4-azabicyclo[4.1.0]hept-3-ene-1-carboxamide] | 412 µM | 0.003 µM | 0.043 µM | 8.66 | – |
| C[C@@H]1CN=C([C@]23C[C@H]2[C@@](C)(c2cc(/C=C(\F)c4ccc(C#N)cn4)ccc2F)N=C(N)S3)O1 [Example 343, 6-((Z)-2-(3-((1S,5S,6S)-3-amino-5-methyl-1-((R)-5-methyl-4,5-dihydrooxazol-2-yl)-2-thia-4-azabicyclo[4.1.0]hept-3-en-5-yl)-4-fluorophenyl)-1-fluorovinyl)nicotinonitrile] | 884 µM | 0.0826 µM | 0.692 µM | – | 0.0031 µM |
| CC[C@H]1COCCN1C(=O)[C@]12C[C@H]1[C@@](C)(c1cc(/C=C(\F)c3ccc(C#N)cn3)ccc1F)N=C(N)S2 [Example 334, 6-((Z)-2-(3-((1S,5S,6S)-3-amino-1-((S)-3-ethylmorpholine-4-carbonyl)-5-methyl-2-thia-4-azabicyclo[4.1.0]hept-3-en-5-yl)-4-fluorophenyl)-1-fluorovinyl)nicotinonitrile] | 19 µM | 0.0064 µM | 0.146 µM | – | 0.0041 µM |
| COCCOc1cnc(/C(F)=C/c2ccc(F)c([C@@]3(C)N=C(N)S[C@@]4(C(=O)N(C)C)C[C@H]43)c2)cn1 [Example 210, (1S,5S,6S)-3-amino-5-(2-fluoro-5-((Z)-2-fluoro-2-(5-(2-methoxyethoxy)pyrazin-2-yl)vinyl)phenyl)-N,N,5-trimethyl-2-thia-4-azabicyclo[4.1.0]hept-3-ene-1-carboxamide] | 159 µM | 0.011 µM | 0.072 µM | 8.15 | – |
| C#CCOc1cnc(/C(F)=C/c2ccc(F)c([C@@]3(C)N=C(N)S[C@]4(CO)[C@H]3C4(F)F)c2)cn1 [Example 253, ((1S,5S,6R)-3-amino-7,7-difluoro-5-(2-fluoro-5-((Z)-2-fluoro-2-(5-(prop-2-yn-1-yloxy)pyrazin-2-yl)vinyl)phenyl)-5-methyl-2-thia-4-azabicyclo[4.1.0]hept-3-en-1-yl)methanol] | 147 µM | 0.0054 µM | 0.385 µM | – | 0.0636 µM |
| COC[C@]12C[C@H]1[C@@](C)(c1cc(/C=C(\F)c3cnc(OCC4COC4)cn3)ccc1F)N=C(N)S2 [Example 272] | 864 µM | 3.04 µM | 4.02 µM | – | 2.53 µM |
| C[C@]1(c2cc(/C=C(\F)c3ccc(C#N)cn3)ccc2F)N=C(N)S[C@@]2(C(=O)N3CCC(F)(F)CC3)C[C@H]21 [Example 325, 6-((Z)-2-(3-((1S,5S,6S)-3-amino-1-(4,4-difluoropiperidine-1-carbonyl)-5-methyl-2-thia-4-azabicyclo[4.1.0]hept-3-en-5-yl)-4-fluorophenyl)-1-fluorovinyl)nicotinonitrile] | 446 µM | 0.0019 µM | 0.089 µM | – | 0.0042 µM |
| CNC(=O)[C@]12C[C@H]1[C@@](C)(c1cc(/C=C(\F)c3cnc(Br)cn3)ccc1F)N=C(N)S2 [Example 163, (1S,5S,6S)-3-amino-5-(5-((Z)-2-(5-bromopyrazin-2-yl)-2-fluorovinyl)-2-fluorophenyl)-N,5-dimethyl-2-thia-4-azabicyclo[4.1.0]hept-3-ene-1-carboxamide] | 69.7 µM | 0.0249 µM | 0.266 µM | 6.54 | – |
| C[C@@H]1CN(C(=O)[C@]23C[C@H]2[C@@](C)(c2cc(/C=C(\F)c4ccc(C#N)cn4)ccc2F)N=C(N)S3)[C@H](C)CO1 [Example 330, 6-((Z)-2-(3-((1S,5S,6S)-3-amino-1-((2R,5R)-2,5-dimethylmorpholine-4-carbonyl)-5-methyl-2-thia-4-azabicyclo[4.1.0]hept-3-en-5-yl)-4-fluorophenyl)-1-fluorovinyl)nicotinonitrile] | 138 µM | 0.0086 µM | 0.239 µM | – | 0.0177 µM |
| CC(C)[C@H]1CN(C(=O)[C@]23C[C@H]2[C@@](C)(c2cc(/C=C(\F)c4ccc(C#N)cn4)ccc2F)N=C(N)S3)CCO1 [Example 316, 6-((Z)-2-(3-((1S,5S,6S)-3-amino-1-((S)-2-isopropylmorpholine-4-carbonyl)-5-methyl-2-thia-4-azabicyclo[4.1.0]hept-3-en-5-yl)-4-fluorophenyl)-1-fluorovinyl)nicotinonitrile] | 170 µM | 0.003 µM | 0.033 µM | – | 0.007 µM |
| CC#CCOc1cnc(/C(F)=C/c2ccc(F)c([C@@]3(C)N=C(N)S[C@@]4(C#N)C[C@H]43)c2)cn1 [Example 244, (1S,5S,6S)-3-amino-5-(5-((Z)-2-(5-(but-2-yn-1-yloxy)pyrazin-2-yl)-2-fluorovinyl)-2-fluorophenyl)-5-methyl-2-thia-4-azabicyclo[4.1.0]hept-3-ene-1-carbonitrile] | 150 µM | 0.0004 µM | 0.055 µM | – | 0.0147 µM |
| COC(=O)[C@]12C[C@H]1[C@@](C)(c1cc(/C=C(/F)c3ccc(Cl)cn3)cnc1F)N=C(N)S2 [Example 177, (1S,5S,6S)-methyl 3-amino-5-(5-((E)-2-(5-chloropyridin-2-yl)-2-fluorovinyl)-2-fluoropyridin-3-yl)-5-methyl-2-thia-4-azabicyclo[4.1.0]hept-3-ene-1-carboxylate] | 527 µM | 0.291 µM | 2.9 µM | – | 5.44 µM |
| C[C@]1(c2cc(/C=C(\F)c3ccc(Cl)cn3)ccc2F)N=C(N)S[C@@]2(C(=O)Nc3ccccc3)C[C@H]21 [Example 118, (1S,5S,6S)-3-amino-5-(5-((Z)-2-(5-chloropyridin-2-yl)-2-fluorovinyl)-2-fluorophenyl)-5-methyl-N-phenyl-2-thia-4-azabicyclo[4.1.0]hept-3-ene-1-carboxamide] | 13.4 µM | 0.0299 µM | 0.047 µM | – | 0.291 µM |
| C#CCOc1cnc(/C(F)=C/c2cnc(F)c([C@@]3(C)N=C(N)S[C@@]4(C(=O)NCC(F)F)C[C@H]43)c2)cn1 [Example 300, (1S,5S,6S)-3-amino-N-(2,2-difluoroethyl)-5-(2-fluoro-5-((Z)-2-fluoro-2-(5-(prop-2-yn-1-yloxy)pyrazin-2-yl)vinyl)pyridin-3-yl)-5-methyl-2-thia-4-azabicyclo[4.1.0]hept-3-ene-1-carboxamide] | 20 µM | 0.0025 µM | 0.411 µM | 8.18 | – |
| CC1(C)COCCN1C(=O)[C@]12C[C@H]1[C@@](C)(c1cc(/C=C(\F)c3ccc(C#N)cn3)ccc1F)N=C(N)S2 [Example 332, 6-((Z)-2-(3-((1S,5S,6S)-3-amino-1-(3,3-dimethylmorpholine-4-carbonyl)-5-methyl-2-thia-4-azabicyclo[4.1.0]hept-3-en-5-yl)-4-fluorophenyl)-1-fluorovinyl)nicotinonitrile] | 117 µM | 0.0023 µM | 0.109 µM | – | 0.0026 µM |
